# Structures can show the parent of a compound that is named as a salt. Where two headings read alike, the source gives them in different places.
# Tests used:
# human NaV 1.7 = target: T1, human NaV 1.7 (Homo sapiens, UniProt Q15858); assay: Electrophysiology, IonWorks Barracuda, NaV channel block in CHO cells; format: cell-based; details: Nav1.7, CHO cells, 5 min exposure, ambient temperature
# T1 construct: expressed in transfected cells; host or cells: CHO
# Description: (§1) Effects on Human NaV 1.1, NaV 1.2, NaV1.3, NaV 1.4, NaV 1.5, NaV 1.6, NaV 1.7 and NaV 1.8/β3 Sodium Channels Expressed in Mammalian Cells
# (§2) CHO cells were stably transfected with human ion channel cDNAs. Stable transfectants were selected by expression with the antibiotic-resistance gene(s) incorporated into the expression plasmid(s). Selection pressure was maintained by including selection antibiotics in the culture medium. CHO cells were cultured in Ham's F-12 supplemented with 10% fetal bovine serum, 100 U/mL penicillin G sodium, 100 μg/mL streptomycin sulfate and appropriate selection antibiotics. Before testing, cells in culture dishes were washed twice with Hank's Balanced Salt Solution (HB-PS) and treated with Accutase for approximately 20 minutes. Immediately before use in IonWorks Barracuda™, the cells were washed in HB-PS to remove the Accutase and re-suspended in HB-PS. All experiments were performed at ambient temperature. […] Duration of exposure to each test article concentration was five (5) minutes. Inhibition of NaV channels was measured using a stimulus voltage pattern. The pulse pattern was repeated before (baseline) and for five (5) minutes after compound addition. […]
# (§3) where [C] was the concentration of test article, IC50 was the concentration of the test article producing half-maximal inhibition, N was the Hill coefficient, % VC was the percentage of the current run-down (the mean current inhibition at the vehicle control) and % Block was the percentage of ion channel current inhibited at each concentration of a test article. Nonlinear least squares fits were solved with the XLfit add-in for Excel (Microsoft, Redmond, Wash.).
# human NaV1.3 = target: T2, human NaV1.3 (Homo sapiens, UniProt Q9NY46); assay: as above; format: cell-based; details: Nav1.3, CHO cells, 5 min exposure, ambient temperature
# T2 construct: expressed in transfected cells; host or cells: CHO
# Description: as §1, §2, §3
# human NaV 1.6 = target: T3, human NaV 1.6 (Homo sapiens, UniProt Q9UQD0); assay: as above; format: cell-based; details: Nav1.6, CHO cells, 5 min exposure, ambient temperature
# T3 construct: expressed in transfected cells; host or cells: CHO
# Description: as §1, §2, §3
# human NaV 1.8/β3 = target: T4, human NaV 1.8/β3 (Homo sapiens, UniProt Q9Y5Y9); assay: as above; format: cell-based; details: Nav1.8, CHO cells, 5 min exposure, ambient temperature
# T4 construct: expressed in transfected cells; host or cells: CHO
# Description: as §1, §2, §3
# human NaV 1.4 = target: T5, human NaV 1.4 (Homo sapiens, UniProt P35499); assay: as above; format: cell-based; details: Nav1.4, CHO cells, 5 min exposure, ambient temperature
# T5 construct: expressed in transfected cells; host or cells: CHO
# Description: as §1, §2, §3
# human NaV 1.1 = target: T6, human NaV 1.1 (Homo sapiens, UniProt P35498); assay: as above; format: cell-based; details: Nav1.1, CHO cells, 5 min exposure, ambient temperature
# T6 construct: expressed in transfected cells; host or cells: CHO
# Description: as §1, §2, §3
# human NaV 1.5 = human NaV 1.5 (Homo sapiens, UniProt Q14524); assay: as above; details: Nav1.5, CHO cells, 5 min exposure, ambient temperature
# Description: as §1, §2, §3
# [1] = target: T7, Human recombinant serotonin 5-HT2A receptor (Homo sapiens, UniProt P28223); assay: Serotonin-mediated inositol phosphate (IP1) response in CHO-K1 cells; format: cell-based; details: screened at 1 μM, 30 minutes at 37° C.; for inhibition at 1 µM: CHO-K1, read-out: antagonism: inhibition of 0.3 μM serotonin-induced fluorescence response
# T7 construct: expressed in transfected cells; host or cells: CHO-K1
# Description: The 5-HT2 receptor class couples preferentially to Gq/G11 to increase hydrolysis of inositol phosphates and elevate cytosolic [Ca^2+]. Human recombinant serotonin 5-HT2A receptor stably expressed in CHO-K1 cells are used. Test compound and/or vehicle is incubated with the cells (5×10^5/ml) in stimulation buffer of IP1 Tb kit (Cisbio Bioassays) for 30 minutes at 37° C. Test compound-induced increase of fluorescence relative to the 10 μM serotonin response indicate possible serotonin 5-HT2A receptor agonist activity.
# NaV 1.1 to NaV 1.8 = assay: Electrophysiology, summary over the NaV panel; format: cell-based, human
# Description: as §1
# CHO cells were stably transfected with human ion channel cDNAs. Stable transfectants were selected by expression with the antibiotic-resistance gene(s) incorporated into the expression plasmid(s). Selection pressure was maintained by including selection antibiotics in the culture medium. CHO cells were cultured in Ham's F-12 supplemented with 10% fetal bovine serum, 100 U/mL penicillin G sodium, 100 μg/mL streptomycin sulfate and appropriate selection antibiotics. Before testing, cells in culture dishes were washed twice with Hank's Balanced Salt Solution (HB-PS) and treated with Accutase for approximately 20 minutes. Immediately before use in IonWorks Barracuda™, the cells were washed in HB-PS to remove the Accutase and re-suspended in HB-PS. All experiments were performed at ambient temperature. […] Duration of exposure to each test article concentration was five (5) minutes. Inhibition of NaV channels was measured using a stimulus voltage pattern. The pulse pattern was repeated before (baseline) and for five (5) minutes after compound addition. Peak current amplitudes were measured for test pulses TP1 (inactivated state inhibition), TP2, TP3 (tonic inhibition) and TP22 (use-dependent inhibition).
# as §3
# human NaV 1.2 = target: T8, human NaV 1.2 (Homo sapiens, UniProt Q99250); assay: Electrophysiology, IonWorks Barracuda, NaV channel block in CHO cells; format: cell-based; details: Nav1.2, CHO cells, 5 min exposure, ambient temperature
# T8 construct: expressed in transfected cells; host or cells: CHO
# Description: as §1, §2, §3
# sodium channel site 2 = assay: Sodium channel site 2 radioligand binding ([3H]Batrachotoxinin); details: rat brain membranes, determined in previous studies
# Solubility observation = format: physicochemical; details: DMSO and acetonitrile/water
# Description: A solution of methyl biphenyl-4-yl(1,2,5,6-tetrahydropyridin-2-yl)acetate hydrochloride salt (10.0 g, crude) in acetonitrile (40 mL) was charged with Methyl tert.-butyl ether (80 mL) and water (7.0 mL) at room temperature. The reaction mixture was stirred for 10 min at room temperature. The resulted solids were filtered, washed with Methyl tert.-butyl ether (25 mL) and was dried to afford EXAMPLE 1E (Enantiomeric pair consisting of Methyl (2R)-biphenyl-4-yl[(2S)-1,2,5,6-tetrahydropyridin-2-yl]acetate hydrochloride, EXAMPLE 1C, & Methyl (2S)-biphenyl-4-yl[(2R)-1,2,5,6-tetrahydropyridin-2-yl]acetate hydrochloride, EXAMPLE 1D, 3.75 g) as a light brown solid (96.8% HPLC purity, m/z 308 [M+H]+).
# [2] = read-out: IC50 TP2 (inactivated state)
# T1 sequence (Q15858 whole entry): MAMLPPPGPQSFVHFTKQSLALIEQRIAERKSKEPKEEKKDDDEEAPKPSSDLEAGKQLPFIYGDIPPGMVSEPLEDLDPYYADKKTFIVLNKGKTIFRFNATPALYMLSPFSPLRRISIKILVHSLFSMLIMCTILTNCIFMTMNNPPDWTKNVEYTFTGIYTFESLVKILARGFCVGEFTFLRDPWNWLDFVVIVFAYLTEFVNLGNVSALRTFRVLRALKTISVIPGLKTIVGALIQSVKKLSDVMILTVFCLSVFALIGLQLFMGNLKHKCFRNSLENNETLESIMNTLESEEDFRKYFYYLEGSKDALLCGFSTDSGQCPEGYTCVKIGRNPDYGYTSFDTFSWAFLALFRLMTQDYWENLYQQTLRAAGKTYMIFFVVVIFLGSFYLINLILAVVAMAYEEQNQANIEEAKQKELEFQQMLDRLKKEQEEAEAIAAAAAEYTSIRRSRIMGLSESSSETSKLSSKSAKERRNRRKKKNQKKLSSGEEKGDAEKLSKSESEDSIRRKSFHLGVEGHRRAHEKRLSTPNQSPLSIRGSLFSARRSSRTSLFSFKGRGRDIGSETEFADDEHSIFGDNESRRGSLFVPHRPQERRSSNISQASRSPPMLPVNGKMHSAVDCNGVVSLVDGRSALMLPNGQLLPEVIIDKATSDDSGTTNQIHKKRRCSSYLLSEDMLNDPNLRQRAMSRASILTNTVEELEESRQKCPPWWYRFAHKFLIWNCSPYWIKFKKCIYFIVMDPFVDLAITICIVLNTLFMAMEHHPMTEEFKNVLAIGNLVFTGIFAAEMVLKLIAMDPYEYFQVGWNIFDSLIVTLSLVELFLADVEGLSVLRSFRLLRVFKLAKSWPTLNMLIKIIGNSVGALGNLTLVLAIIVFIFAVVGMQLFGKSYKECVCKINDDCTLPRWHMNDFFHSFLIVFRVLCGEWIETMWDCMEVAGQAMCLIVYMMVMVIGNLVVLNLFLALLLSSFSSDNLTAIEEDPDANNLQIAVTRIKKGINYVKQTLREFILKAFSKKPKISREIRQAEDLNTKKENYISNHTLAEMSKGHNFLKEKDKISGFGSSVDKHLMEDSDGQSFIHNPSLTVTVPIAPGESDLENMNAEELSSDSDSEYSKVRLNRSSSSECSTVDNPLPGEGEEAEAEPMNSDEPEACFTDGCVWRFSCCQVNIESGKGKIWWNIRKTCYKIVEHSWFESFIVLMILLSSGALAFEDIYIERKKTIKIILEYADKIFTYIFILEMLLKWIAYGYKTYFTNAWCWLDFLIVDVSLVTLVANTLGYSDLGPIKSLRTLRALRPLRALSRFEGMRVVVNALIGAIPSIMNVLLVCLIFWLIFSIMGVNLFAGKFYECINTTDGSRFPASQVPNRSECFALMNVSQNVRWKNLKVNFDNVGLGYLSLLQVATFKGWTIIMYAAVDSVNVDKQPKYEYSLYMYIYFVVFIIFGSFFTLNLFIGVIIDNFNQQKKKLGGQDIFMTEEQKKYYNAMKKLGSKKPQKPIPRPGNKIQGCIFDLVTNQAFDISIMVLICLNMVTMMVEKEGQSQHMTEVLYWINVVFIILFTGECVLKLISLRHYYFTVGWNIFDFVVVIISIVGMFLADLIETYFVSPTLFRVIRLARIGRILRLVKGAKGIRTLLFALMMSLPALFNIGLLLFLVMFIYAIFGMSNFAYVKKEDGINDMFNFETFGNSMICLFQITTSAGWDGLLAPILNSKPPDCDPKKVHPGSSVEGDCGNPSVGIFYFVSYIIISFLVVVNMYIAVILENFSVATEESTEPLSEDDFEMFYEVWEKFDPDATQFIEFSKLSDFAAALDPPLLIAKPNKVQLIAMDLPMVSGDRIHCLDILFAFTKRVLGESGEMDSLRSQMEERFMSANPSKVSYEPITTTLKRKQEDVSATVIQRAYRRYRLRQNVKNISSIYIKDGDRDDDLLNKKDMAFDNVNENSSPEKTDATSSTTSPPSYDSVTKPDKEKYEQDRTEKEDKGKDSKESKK
# T5 sequence (P35499 whole entry): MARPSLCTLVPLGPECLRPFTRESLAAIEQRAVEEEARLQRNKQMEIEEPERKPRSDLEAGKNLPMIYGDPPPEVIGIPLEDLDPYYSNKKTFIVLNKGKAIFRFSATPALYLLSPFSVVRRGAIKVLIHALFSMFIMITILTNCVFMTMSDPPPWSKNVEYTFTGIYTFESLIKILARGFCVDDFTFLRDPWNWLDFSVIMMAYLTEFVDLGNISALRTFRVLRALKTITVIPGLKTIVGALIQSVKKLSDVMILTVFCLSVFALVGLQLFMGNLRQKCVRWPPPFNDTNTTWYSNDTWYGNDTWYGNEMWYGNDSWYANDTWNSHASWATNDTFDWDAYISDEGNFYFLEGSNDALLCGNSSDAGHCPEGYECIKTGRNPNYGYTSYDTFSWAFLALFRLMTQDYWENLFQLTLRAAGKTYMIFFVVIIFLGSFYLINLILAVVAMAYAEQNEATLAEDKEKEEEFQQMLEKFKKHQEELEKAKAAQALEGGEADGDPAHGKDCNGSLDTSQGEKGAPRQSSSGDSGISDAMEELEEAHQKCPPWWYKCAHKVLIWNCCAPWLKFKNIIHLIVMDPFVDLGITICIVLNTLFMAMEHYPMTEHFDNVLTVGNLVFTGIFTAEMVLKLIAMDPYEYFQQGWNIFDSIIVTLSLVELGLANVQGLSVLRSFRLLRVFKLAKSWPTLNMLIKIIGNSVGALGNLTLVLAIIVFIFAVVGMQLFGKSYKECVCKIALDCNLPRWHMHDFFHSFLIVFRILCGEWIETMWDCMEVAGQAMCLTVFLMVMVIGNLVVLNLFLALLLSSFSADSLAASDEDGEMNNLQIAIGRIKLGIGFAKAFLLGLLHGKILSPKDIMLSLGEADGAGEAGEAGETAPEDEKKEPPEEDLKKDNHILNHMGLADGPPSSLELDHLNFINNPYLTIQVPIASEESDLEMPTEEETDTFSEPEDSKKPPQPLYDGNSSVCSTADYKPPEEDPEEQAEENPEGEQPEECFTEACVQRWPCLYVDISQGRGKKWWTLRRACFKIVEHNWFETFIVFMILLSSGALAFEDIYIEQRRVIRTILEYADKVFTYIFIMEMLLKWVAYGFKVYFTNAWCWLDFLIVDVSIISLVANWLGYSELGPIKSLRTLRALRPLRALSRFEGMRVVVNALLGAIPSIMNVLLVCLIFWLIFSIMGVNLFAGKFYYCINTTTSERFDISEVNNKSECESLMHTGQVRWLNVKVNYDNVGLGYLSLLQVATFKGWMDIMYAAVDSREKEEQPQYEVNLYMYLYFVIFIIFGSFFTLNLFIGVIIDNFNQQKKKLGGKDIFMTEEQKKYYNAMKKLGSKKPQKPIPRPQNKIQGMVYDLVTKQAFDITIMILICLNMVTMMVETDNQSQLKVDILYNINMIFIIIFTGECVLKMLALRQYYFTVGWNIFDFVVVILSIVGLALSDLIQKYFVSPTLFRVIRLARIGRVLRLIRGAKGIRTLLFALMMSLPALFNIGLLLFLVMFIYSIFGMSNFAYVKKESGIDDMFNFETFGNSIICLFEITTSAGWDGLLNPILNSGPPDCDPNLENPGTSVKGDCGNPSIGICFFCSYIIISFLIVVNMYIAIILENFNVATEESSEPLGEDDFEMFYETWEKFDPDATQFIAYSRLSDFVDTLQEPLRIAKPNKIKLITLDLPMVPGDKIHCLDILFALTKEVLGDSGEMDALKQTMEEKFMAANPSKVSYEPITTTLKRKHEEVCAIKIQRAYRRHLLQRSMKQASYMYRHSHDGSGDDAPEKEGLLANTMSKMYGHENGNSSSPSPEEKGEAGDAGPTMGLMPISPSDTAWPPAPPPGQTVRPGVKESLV
# T7 sequence (P28223 whole entry): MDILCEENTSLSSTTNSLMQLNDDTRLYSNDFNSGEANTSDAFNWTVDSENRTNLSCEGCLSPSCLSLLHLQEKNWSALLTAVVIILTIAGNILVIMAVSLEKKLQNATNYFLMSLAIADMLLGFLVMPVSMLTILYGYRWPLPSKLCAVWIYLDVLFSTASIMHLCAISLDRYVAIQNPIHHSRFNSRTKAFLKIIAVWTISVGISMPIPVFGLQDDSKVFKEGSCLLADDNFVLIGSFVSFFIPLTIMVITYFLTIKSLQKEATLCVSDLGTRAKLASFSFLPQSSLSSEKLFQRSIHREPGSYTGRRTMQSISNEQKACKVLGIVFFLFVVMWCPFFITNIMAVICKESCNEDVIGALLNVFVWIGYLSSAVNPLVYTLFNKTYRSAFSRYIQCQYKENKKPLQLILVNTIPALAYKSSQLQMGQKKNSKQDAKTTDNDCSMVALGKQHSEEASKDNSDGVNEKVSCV
molecule,measurement,setting,value
"CCN(CC)CC(=O)Nc1c(C)cccc1C [Lidocaine, reference compound]",IC50,human NaV 1.7; read-out: IC50 TP1 (tonic),382 µM
same,IC50,human NaV 1.7; [2],154 µM
same,IC50,human NaV1.3; read-out: IC50 TP1 (tonic),555 µM
same,IC50,human NaV1.3; [2],165 µM
same,IC50,human NaV 1.6; read-out: IC50 TP1 (tonic),423 µM
same,IC50,human NaV 1.6; [2],188 µM
same,IC50,human NaV 1.8/β3; read-out: IC50 TP1 (tonic),280 µM
same,IC50,human NaV 1.8/β3; [2],51.4 µM
same,IC50,human NaV 1.4; read-out: IC50 TP1 (tonic),389 µM
same,IC50,human NaV 1.4; [2],162 µM
same,IC50,human NaV 1.1; read-out: IC50 TP1 (tonic),543 µM
same,IC50,human NaV 1.1; [2],465 µM
"COC(=O)[C@@H](c1ccc(-c2ccccc2)cc1)[C@H]1C=CCCN1 [EXAMPLE 1D, Methyl (2S)-biphenyl-4-yl[(2R)-1,2,5,6-tetrahydropyridin-2-yl]acetate hydrochloride]",IC50,human NaV 1.5; IC50 TP1 (tonic),> 30 µM
same,IC50,human NaV 1.5; IC50 TP2 (inactivated state),2 µM
same,inhibition at 1 µM,[1],37%
same,agonist activity (increase of fluorescence relative to the 10 μM serotonin response),[1],no agonist activity
same,inhibition to NaV 1.1 to NaV 1.8,NaV 1.1 to NaV 1.8,showed inhibition
same,IC50,human NaV 1.7; IC50 TP1 (tonic),> 30 µM
same,IC50,human NaV 1.7; IC50 TP2 (inactivated state),2 µM
same,IC50,human NaV1.3; IC50 TP1 (tonic),> 30 µM
same,IC50,human NaV1.3; IC50 TP2 (inactivated state),2 µM
same,IC50,human NaV 1.6; IC50 TP1 (tonic),> 30 µM
same,IC50,human NaV 1.6; IC50 TP2 (inactivated state),2 µM
same,IC50,human NaV 1.2; IC50 TP1 (tonic),> 30 µM
same,IC50,human NaV 1.2; IC50 TP2 (inactivated state),2.1 µM
same,IC50,human NaV 1.8/β3; IC50 TP1 (tonic),> 30 µM
same,IC50,human NaV 1.8/β3; IC50 TP2 (inactivated state),1.8 µM
same,IC50,human NaV 1.4; IC50 TP1 (tonic),> 30 µM
same,IC50,human NaV 1.4; IC50 TP2 (inactivated state),1.3 µM
same,IC50,human NaV 1.1; IC50 TP1 (tonic),> 30 µM
same,IC50,human NaV 1.1; IC50 TP2 (inactivated state),2.2 µM
"COC(=O)[C@H](c1ccc(-c2ccccc2)cc1)[C@@H]1C=CCCN1.Cl [EXAMPLE 1C, Methyl (2R)-biphenyl-4-yl[(2S)-1,2,5,6-tetrahydropyridin-2-yl]acetate hydrochloride]",IC50,human NaV 1.5; IC50 TP1 (tonic),> 30 µM
same,IC50,human NaV 1.5; IC50 TP2 (inactivated state),1.5 µM
same,inhibition at 1 µM,[1],30%
same,agonist activity (increase of fluorescence relative to the 10 μM serotonin response),[1],no agonist activity
same,inhibition to NaV 1.1 to NaV 1.8,NaV 1.1 to NaV 1.8,showed inhibition
same,IC50,human NaV 1.7; IC50 TP1 (tonic),> 30 µM
same,IC50,human NaV 1.7; IC50 TP2 (inactivated state),2.5 µM
same,IC50,human NaV1.3; IC50 TP1 (tonic),> 30 µM
same,IC50,human NaV1.3; IC50 TP2 (inactivated state),2.2 µM
same,IC50,human NaV 1.6; IC50 TP1 (tonic),> 30 µM
same,IC50,human NaV 1.6; IC50 TP2 (inactivated state),2.2 µM
same,IC50,human NaV 1.2; IC50 TP1 (tonic),> 30 µM
same,IC50,human NaV 1.2; IC50 TP2 (inactivated state),3.1 µM
same,IC50,human NaV 1.8/β3; IC50 TP1 (tonic),> 30 µM
same,IC50,human NaV 1.8/β3; IC50 TP2 (inactivated state),1.9 µM
same,IC50,human NaV 1.4; IC50 TP1 (tonic),> 30 µM
same,IC50,human NaV 1.4; IC50 TP2 (inactivated state),1.5 µM
same,IC50,human NaV 1.1; IC50 TP1 (tonic),> 30 µM
same,IC50,human NaV 1.1; IC50 TP2 (inactivated state),2.1 µM
[3H]Batrachotoxinin,Kd,sodium channel site 2,0.052 µM
COC(=O)[C@H](c1ccc(-c2ccccc2)cc1)[C@@H]1C=CCCN1 (racemic) [EXAMPLE 1E],IC50,human NaV 1.5; IC50 TP1 (tonic),> 30 µM
same,IC50,human NaV 1.5; IC50 TP2 (inactivated state),1.2 µM
same,solubility,Solubility observation,soluble in DMSO and acetonitrile/water
same,inhibition to NaV 1.1 to NaV 1.8,NaV 1.1 to NaV 1.8,showed inhibition
same,IC50,human NaV 1.7; IC50 TP1 (tonic),> 30 µM
same,IC50,human NaV 1.7; IC50 TP2 (inactivated state),1.3 µM
same,IC50,human NaV1.3; IC50 TP1 (tonic),> 30 µM
same,IC50,human NaV1.3; IC50 TP2 (inactivated state),1.3 µM
same,IC50,human NaV 1.6; IC50 TP1 (tonic),> 30 µM
same,IC50,human NaV 1.6; IC50 TP2 (inactivated state),1.2 µM
same,IC50,human NaV 1.2; IC50 TP1 (tonic),> 30 µM
same,IC50,human NaV 1.2; IC50 TP2 (inactivated state),1.5 µM
same,IC50,human NaV 1.8/β3; IC50 TP1 (tonic),> 30 µM
same,IC50,human NaV 1.8/β3; IC50 TP2 (inactivated state),1.1 µM
same,IC50,human NaV 1.4; IC50 TP1 (tonic),> 30 µM
same,IC50,human NaV 1.4; IC50 TP2 (inactivated state),1.2 µM
same,IC50,human NaV 1.1; IC50 TP1 (tonic),> 30 µM
same,IC50,human NaV 1.1; IC50 TP2 (inactivated state),1.5 µM
"COC(=O)C(c1ccc(-c2ccccc2)cc1)C1C=CCCN1.Cl (stereo not shown) [EXAMPLE 1, methyl biphenyl-4-yl(1,2,5,6-tetrahydropyridin-2-yl)acetate hydrochloride salt]",agonist activity (increase of fluorescence relative to the 10 μM serotonin response),[1],no agonist activity
